Results published in publication PMC3139892, “Effective Control of Postprandial Glucose Level through Inhibition of Intestinal Alpha Glucosidase by Cymbopogon martinii (Roxb.)” (Evidence-based Complementary and Alternative Medicine : eCAM, 2011).

Biological target: T1, intestinal alpha glucosidase (maltase activity)
T1 construct: gene Mgam; mixture of intestinal alpha-glucosidases
Assay: maltose hydrolysis, glucose by glucose oxidase (GOD-PAP)
Format: biochemical, Rattus norvegicus
Conditions: 25 mM maltose, 100 mM phosphate pH 7.2, 37°C, 30 min; mucosal enzyme preparation
Text: maltose hydrolysis, glucose by glucose oxidase (GOD-PAP) on intestinal alpha glucosidase (maltase activity)

Acarbose / IC50: 60 µg/mL
SMILES: C[C@H]1O[C@H](O[C@H]2[C@H](O)[C@@H](O)[C@@H](O[C@H]3[C@H](O)[C@@H](O)C(O)O[C@@H]3CO)O[C@@H]2CO)[C@H](O)[C@@H](O)[C@@H]1N[C@H]1C=C(CO)[C@@H](O)[C@H](O)[C@H]1O (stereo partly shown) [acarbose]
